In patent US20240208950A1, “COMPOSITIONS AND METHODS FOR TREATMENT OF CERVICAL AND OVARIAN CANCER” (SOUTH DAKOTA BOARD OF REGENTS, priority 2021, published 2024):

Experiments:
Assay type in all cases: cell-based, human
[1] = test system: CaSki cells; test: Cell proliferation assay (MTS), CaSki; conditions: 1-20 μM, 24 hours
Description: The effect of Br-ORM on CaSki and SiHa cells proliferation was performed using the MTS assay. Briefly, cells were seeded at a density of 5×10^3 cells per well in 96 well plate and allowed to stand overnight at 37° C. and 5% CO2 incubator. Next day, cells were treated with different concentrations of Br-ORM (1, 5, 10 and 20 μM). DMSO was used as a vehicle for the treatment of control cells. Twenty four hours post-treatment, 20 μL of MTS reagent (5 mg/mL) was added in each well and further incubated the plate for 2 hours in a CO2 incubator. Absorbance was taken after 2 hours at […] (SpectraMax M2 spectrophotometer, Molecular Devices, Sunnyvale, CA, USA). The experiment was performed in triplicates. Results were represented as percent viability with respect to the control group. […]
FIG. 13. […] Cell viability was assessed by MTS assay. […] Bar graphs indicating quantification of colony formation in CaSki (i), and SiHa (ii) cells of cervical cancer with respect to vehicle control. […] Briefly, cervical cancer cells were treated with Br-ORM (10 μM) for 24 hours and the apoptosis inducing effect of Br-ORM was analyzed by Annexin V staining. […] The equal loading of protein in each lane was determined by probing the blots with β-actin antibody (FIG. 13F). […] Br-ORM arrests cell cycle in G1/S phase as determined by flow cytometry. […]

[2] = test system: cleaved PARP in SiHa cells; test: Western blot for cleavage of PARP, SiHa; conditions: 24 hours
Description: The effect of Br-ORM on protein expression in cervical cancer cells were determined by Western blot analysis by using specific antibodies.
It was observed that Br-ORM exerts potent growth inhibitory effects, so the effect of Br-ORM on apoptosis induction was further examined. Cervical cancer cells were treated with Br-ORM (10 μM) for 24 hours and the apoptosis inducing effect of Br-ORM was analyzed by Annexin V staining and Western blot analysis for cleavage in PARP protein.
FIG. 13. Br-ORM decreases proliferation and colony formation of cervical cancer cells. FIG. 13A. Effect of Br-ORM on cell viability of CaSki cells (i) and SiHa cells (ii). Briefly, cervical cancer cells were seeded (2500) in each well of 96-well plate and after overnight incubation; cells were treated with indicated concentrations of Br-ORM for 24 hours. Cell viability was assessed by MTS assay. […] Bar graphs indicating quantification of colony formation in CaSki (i), and SiHa (ii) cells of cervical cancer with respect to vehicle control. […] Briefly, cervical cancer cells were treated with Br-ORM (10 μM) for 24 hours and the apoptosis inducing effect of Br-ORM was analyzed by Annexin V staining. […] The equal loading of protein in each lane was determined by probing the blots with β-actin antibody (FIG. 13F). […] Br-ORM arrests cell cycle in G1/S phase as determined by flow cytometry. […]

[3] = test system: CaSki cells; test: Cell migration (agarose bead, scratch wound, Boyden chamber), CaSki; conditions: 0 and 48 hours
Description: FIGS. 7B and 7D show the effect of ORM-Br on motility potential of CaSki cells (FIG. 7B) and SiHa cells (FIG. 7D) as predicted by agarose bead assay. The images shown in FIGS. 7A-7D represent the migratory cells (MC) in control and ORM-Br treated groups at 0 and 48 hours. In FIGS. 7B and 7D, AB means agarose beads. In FIGS. 7A-7D the images magnification were at 4.
Cell motility was performed by in vitro scratch wound assay. Briefly, cells were seeded in a 12-wells plate and after 80-90% confluency a standardized wound was made using a 200 μL micropipette tip. Cells were then treated with Br-ORM (10 μM) and photographed by phase contrast microscopy. […]
FIG. 14. […] Effect of Br-ORM on cell migration of cervical cancer cells as determined by agarose bead (FIG. 14A), scratch wound healing (FIG. 14B), and Boyden chamber assay (FIG. 14C). […] Closure of wound was determined and photographed using phase contrast microscopy. […] Bar graph represent the quantification of migrated CaSki cells of control and Br-ORM treated groups (FIG. 14C(ii)). […] Effect of Br-ORM treatment on invasion of CaSki cells as determined by a commercially available kit (BD Biosciences) as described in materials and methods. In brief, 24 hours post-treatment of Br-ORM, invaded cells were fixed, stained and counted. […] Bar graph represent the quantification of invaded CaSki cells of control and Br-ORM treated groups (FIG. 14D(ii)). […]

## COc1ccc2c(c1)OC(C)(C)C(c1ccc(Br)cc1)C2c1ccc(OCCN2CCCC2)cc1 (centres unmarked) [ORM-Br]
[1]
  cell viability / growth: inhibits the growth
[1]; listed as Br-ORM
  cell viability / growth: dose dependently inhibited the cell viability
[2]
  protein levels of cleaved PARP: dose dependently enhanced the protein levels of cleaved PARP
[3]
  cell migration / motility: inhibits the migration
[3]; listed as Br-ORM
  cell migration / motility: dose dependent inhibition of migration abilities
